Values after ≈ are worked out from the molar mass of the structure shown.
How the values were obtained:
[1] = Saturation solubility of active ingredients in 1,3-bis(1-pyrrolidonyl)butane as solvent (Example 5); type: physicochemical; conditions: 22 °C, organic solvent or mixture, thermodynamic from solid, stirred at room temperature for 72 hours, filtrate by UV photometry, read-out: maximum solubility at 22° C.
Description: It was stirred at room temperature for 72 hours.

[2] = Maximum soluble amount of active ingredient in cosolvent:water mixtures and phosphate buffer (Example 6); conditions: for cosolvent quality mixed with water compared with propylene glycol: for hydrophilic active ingredients such as paracetamol, theophylline or trimethoprim
Description: To 20 ml 1,3-bis(1-pyrrolidonyl)butane was added the active ingredient in an amount which is above the amount of this active ingredient able to dissolve in this volume. It was stirred at room temperature for 72 hours. As a rule, this time ensured that the saturation solubility in the medium was reached. After subsequent filtration, the content of active ingredient in the filtrate was determined by UV photometry.
e) 1,2-Propylene glycol (1,2-PG):water (1:1)
f) 1,2-Propylene glycol (1,2-PG):water (1:3)

[3] = cited from earlier work
[4] = 25% 1,2-PG (1,2-propylene glycol:water 1:3), 20 ml
[5] = 25% DHVP (1,3-bis(1-pyrrolidonyl)butane:water 1:3), 20 ml
[6] = 50% 1,2-PG (1,2-propylene glycol:water 1:1), 20 ml
[7] = 50% DHVP (1,3-bis(1-pyrrolidonyl)butane:water 1:1), 20 ml
[8] = in 20 ml 25% 1,2-PG (1,2-propylene glycol:water 1:3)
[9] = in 20 ml 25% DHVP (1,3-bis(1-pyrrolidonyl)butane:water 1:3)
[10] = in 20 ml 50% 1,2-PG (1,2-propylene glycol:water 1:1)
[11] = in 20 ml 50% DHVP (1,3-bis(1-pyrrolidonyl)butane:water 1:1)
[12] = in 20 ml phosphate buffer pH 7.0
[13] = 25% DHVC (1,3-bis(1-caprolactamyl)butane:water 1:3), 20 ml
[14] = 50% DHVC (1,3-bis(1-caprolactamyl)butane:water 1:1), 20 ml
[15] = in 20 ml 25% DHVC (1,3-bis(1-caprolactamyl)butane:water 1:3)
[16] = in 20 ml 50% DHVC (1,3-bis(1-caprolactamyl)butane:water 1:1)

Compound	solubility at 72 h [1] [mg/mL]	Solubility [%] [2, 4] [%]	Solubility [%] [2, 5] [%]	Solubility [%] [2, 6] [%]	Solubility [%] [2, 7] [%]	Solubility [%] ([2]; Phosphate buffer pH 7.0, 20 ml)	Dissolved substance [2, 8] [g]	Dissolved substance [2, 9] [g]	Dissolved substance [2, 10] [g]	Dissolved substance [2, 11] [g]	Dissolved substance [2, 12] [g]	also measured
C[C@]12C=CC(=O)C=C1CC[C@@H]1[C@@H]2C(=O)C[C@@]2(C)[C@H]1CC[C@]2(O)C(=O)CO [Prednisone]	200 (≈ 558 mM)	–	–	–	–	–	–	–	–	–	–	–
CCS(=O)(=O)Oc1ccc2c(C)c(C)c(=O)oc2c1 [Esuprone]	190 (≈ 673 mM)	–	–	–	–	–	–	–	–	–	–	–
CC(CCN1CCCCCC1=O)N1CCCCCC1=O (stereo not drawn) [Example 4, 1,3-Bis-(1-caprolactamyl)Butane]	–	–	–	–	–	–	–	–	–	–	–	cosolvent quality mixed with water compared with propylene glycol [2]: better cosolvents
CC(CCN1CCCC1=O)N1CCCC1=O (stereo not drawn) [Example 2, 1,3-Bis-(1-pyrrolidonyl)Butane]	–	–	–	–	–	–	–	–	–	–	–	cosolvent quality mixed with water compared with propylene glycol [2]: better cosolvents
CC(O)CO (stereo not drawn) [propylene glycol]	–	–	–	–	–	–	–	–	–	–	–	miscibility/solubility with fixed oils [3]: immiscible
OCC(O)CO [glycerol]	–	–	–	–	–	–	–	–	–	–	–	miscibility/solubility with fixed oils [3]: not soluble; miscibility with water ([3]; water): miscible
Cn1c(=O)c2[nH]cnc2n(C)c1=O [theophylline]	–	1.00	1.30	1.54	1.85	0.59	0.1998	0.2609	0.3083	0.3703	0.1172	Solubility [%] [2, 13]: 1.55%; Solubility [%] [2, 14]: 2.74%; Dissolved substance [2, 15]: 0.3105 g; Dissolved substance [2, 16]: 0.5476 g

Now from value to molecule, other results behind:

solubility at 72 h [1] [mg/mL]	Solubility [%] [2, 4] [%]	Solubility [%] [2, 5] [%]	Solubility [%] [2, 6] [%]	Solubility [%] [2, 7] [%]	Solubility [%] ([2]; Phosphate buffer pH 7.0, 20 ml)	Dissolved substance [2, 8] [g]	Dissolved substance [2, 9] [g]	Dissolved substance [2, 10] [g]	Dissolved substance [2, 11] [g]	Dissolved substance [2, 12] [g]	Compound	also measured
200 (≈ 783 mM)	–	–	–	–	–	–	–	–	–	–	Nc1ccc(S(=O)(=O)Nc2nccs2)cc1 [Sulfathiazole]	–
250 (≈ 1650 mM)	2.77	10.62	6.46	25.15	1.36	0.5537	2.1244	1.2914	5.0298	0.2718	CC(=O)Nc1ccc(O)cc1 [Paracetamol]	–
150 (≈ 517 mM)	0.28	1.03	0.89	3.55	0.12	0.0558	0.2063	0.1785	0.7097	0.0245	COc1cc(Cc2cnc(N)nc2N)cc(OC)c1OC [Trimethoprim]	Solubility [%] [2, 13]: 1.69%; Solubility [%] [2, 14]: 5.09%; Dissolved substance [2, 15]: 0.3382 g; Dissolved substance [2, 16]: 1.0170 g
